Holding throughout (assay type): cell-based
For assay [1], the system named is washed human platelets. Kind of assay: Thromboxane B2 ELISA assay. Particulars: different concentrations; thrombin stimulation; Indomethacin 20 µM as comparator. The procedure:
(§1) (A–D) Washed human platelets were pre-incubated with 10 µM S-G04 or 20 µM R-G04 for 2 min before being stimulated with Arachidonic Acid (AA), U46619, ADP, or Thrombin. The % platelet aggregation was measured 5 min after agonist stimulation. (E) Washed human platelets were pre-incubated with 10 µM S-G04 or 20 µM R-G04 for 2 min and with Chrono-lume® for 30 s at 37 °C before being stimulated with 0.1 U/mL Thrombin. […] TxB2 formation was determined using a TxB2 ELISA kit. The differences among DMSO, R-G04, and S-G04 were analyzed using t-test, and the results are shown as means ± SDs of three independent experiments. (* p < 0.05, ** p < 0.01, *** p < 0.001, and **** p < 0.0001).
The level of TxB2 was measured with an enzyme immunoassay kit (No. 501020; Cayman Chemical, Ann Arbor, MI, USA) as previously described. […] The reactions were terminated by adding 250 µL of HEPES Tyrode’s buffer (pH 7.4) containing 2 mM EDTA. The platelets were centrifuged for 2 min, and the level of TxB2 in the supernatant was measured with the ELISA kit according to the manufacturer’s instructions.
(In an ELISA, binding on a coated surface is turned into a signal by an enzyme label.)

Assay [2] concerns washed human platelets. The experiment in a line: Collagen-induced platelet aggregation, light transmission aggregometry (Born method). Particulars: for IC50: collagen 1 µg/mL, dose-response curves, read-out: IC50 (95% CI) of platelet aggregation; for IC50 / activity at 20 µM: washed human platelets; for activity at 20 µM: compound 20 µM, means ± SDs of three experiments, 100% = agonist alone. The procedure: Light transmission aggregometry, i.e., the Born method, was used to determine in vitro antiplatelet aggregation activity using collagen as the agonist for platelet aggregation. Collagen was selected as the agonist, since it is the most thrombogenic component of the subendothelial layer. Collagen also serves as a substrate for platelet adhesion and as an inducer of platelet activation.
All experiments using human blood from healthy volunteers were performed according to the protocols approved by the Institutional Review Board at Cincinnati Children’s Hospital Medical Center, Cincinnati, Ohio. Each volunteer was required to sign an informed consent form approved by the IRB. Procedures for drawing human blood, isolating platelet-rich plasma (PRP), and preparing washed platelet suspensions were the same as those previously reported. […] PRP was obtained by means of the centrifugation of blood at 1400 rpm for 15 min at room temperature. PRP was centrifuged at 4000 rpm for 10 min at room temperature, and the platelet pellet was resuspended in HEPES Tyrode’s solution (pH 7.4) without calcium. Platelets were counted using Hemavet 950FS (Drew Scientific, Oxford, CT, USA), and the count was adjusted to 2.5 × 10^8/mL for aggregation studies.
(§2) The in vitro antiplatelet activity of the compounds was assayed on washed human platelets using light transmission aggregometry. Platelet aggregation was performed using a 4-channel Lumi-aggregometer (Chronolog, PA, USA) at 37 °C and stirring speed of 900 rpm. A volume of 250 µL of washed human platelets (2.5 × 10^8/mL) was pre-warmed to 37 °C along with the compounds or DMSO (0.1%) for 2 min before the addition of agonists such as collagen, AA, U46619 (a stable synthetic analog of thromboxane A2), ADP, and thrombin. For ATP secretion, platelets were pre-incubated with a luciferin/luciferase kit (Chrono-lume®) for 30 s at 37 °C before the addition of the agonist. The reactions were allowed to proceed for at least 4 min, and the results of platelet aggregation and ATP secretion were determined using Aggrolink software. Platelet aggregation was expressed as the maximum change in the light transmission, where the 100% value corresponded to treatment with the agonist alone. Compounds were evaluated in triplicate at nine compound concentrations ranging from 50 µM to 1 µM.

In assay [3] the test system is washed human platelets. Kind of assay: ATP secretion (Chrono-lume) after thrombin stimulation. Particulars: 10 µM S-G04 or 20 µM R-G04; thrombin 0.1 U/mL. The procedure: as §1
The in vitro antiplatelet activity of the compounds was assayed on washed human platelets using light transmission aggregometry. Platelet aggregation was performed using a 4-channel Lumi-aggregometer (Chronolog, PA, USA) at 37 °C and stirring speed of 900 rpm. […] The reactions were allowed to proceed for at least 4 min, and the results of platelet aggregation and ATP secretion were determined using Aggrolink software. Platelet aggregation was expressed as the maximum change in the light transmission, where the 100% value corresponded to treatment with the agonist alone. Compounds were evaluated in triplicate at nine compound concentrations ranging from 50 µM to 1 µM. […]

Assay [4] deals with washed human platelets. The experiment in a line: Platelet aggregation induced by AA, U46619, ADP or thrombin. Particulars: 10 µM S-G04 or 20 µM R-G04, 2 min pre-incubation.
Description: TxA2 is a metabolite derived from AA via the COX pathway, a potent vasoconstrictor, and a platelet agonist that results in irreversible platelet aggregation. […] The data in Figure 7 show the potential of the RhoA inhibitors to inhibit platelet aggregation mediated by diverse agonists, i.e., TxA2, ADP, U46619, AA, and thrombin, and ATP secretion, highlighting the potential to inhibit multiple-agonist-mediated platelet activation pathways at micromolar concentrations.
as §1
as §2, with “µM. The half-maximal inhibitory concentration (IC50) value was calculated as the concentration of the inhibitor causing 50% inhibition of aggregation.” for “µM.”

[5] abbreviates: Platelet, read-out: % Platelet Aggregation, Collagen (1 µg/mL).
Where [6] appears, read: Platelet, read-out: % Platelet Aggregation, Collagen (5 µg/mL).

What is called IC50 is the concentration that inhibits the measured activity by half.

Molecules are shown by their SMILES. “Also recorded” adds a separate entry of the source. Read-outs that look alike come from different tables or passages of the source.

For the molecule `N[C@H](Cc1c[nH]c2ccccc12)C(=O)N/N=C/c1ccc2nccnc2c1` [R-G04], in the assay with washed human platelets [1], the “generation of TxA2, measured as thromboxane B2 (TxB2)” value is recorded as “dose-dependent inhibition”. Besides, the IC50 in the assay on washed human platelets [2] (Homo sapiens, Platelet) stood at 22.6 µM. The activity at 20 µM in the assay on washed human platelets [2] (setting [5]) was determined as 70.3 ± 18.9%. Also, in the assay on washed human platelets [2] (setting [6]), the activity at 20 µM came out at 71.4 ± 15%. Further, the ATP secretion entry in the assay on washed human platelets [3] was “failed to have the same inhibitory effect”. In the assay on washed human platelets [4], the AA-induced platelet aggregation result is listed as “failed to have the same inhibitory effect”, the ADP-induced platelet aggregation result is on record as “significantly inhibited ADP-induced platelet aggregation”, the U46619-induced platelet aggregation entry is “failed to have the same inhibitory effect” and the thrombin-induced platelet aggregation result was “failed to have the same inhibitory effect”.

Turning to `N[C@@H](Cc1c[nH]c2ccccc12)C(=O)N/N=C/c1ccc2nccnc2c1` [S-G04], in the assay on washed human platelets [1], the “generation of TxA2, measured as thromboxane B2 (TxB2)” value is given as “dose-dependent inhibition; also recorded: comparable to that of Indomethacin”. The IC50 with washed human platelets [2] (Homo sapiens, Platelet) worked out at 7.8 µM. The activity at 20 µM with washed human platelets [2] (setting [5]) is 9.33 ± 4.93%. Also, in the assay with washed human platelets [2] (setting [6]), the activity at 20 µM worked out at 20 ± 5%. Moreover, the IC50 in the assay with washed human platelets [2] was found to be 7.96 µM. The “potency of S-G04 relative to R-G04” value in the assay with washed human platelets [2] (from IC50, collagen 1 µg/mL) was “three times more potent than R-G04”. Besides, the ATP secretion result in the assay on washed human platelets [3] was “inhibited ATP secretion”. Also, in the assay with washed human platelets [4], the AA-induced platelet aggregation entry is reported as “suppressed the platelet activation”, the ADP-induced platelet aggregation result is “significantly inhibited ADP-induced platelet aggregation”, the U46619-induced platelet aggregation result was “suppressed the platelet activation” and the thrombin-induced platelet aggregation result is recorded as “suppressed the platelet activation”.

For the origin of these results see article PMC9961652 (International Journal of Molecular Sciences, 2023).
